# Assay results: patent publication US20250145608A1, “KRAS DEGRADING COMPOUNDS COMPRISING ANNULATED 2-AMINO-3-CYANO THIOPHENES” (Boehringer Ingelheim Int'l GmbH Corp., priority 2021, published 2025)
# Where two headings read alike, the source gives them in different places.
# Columns and labels:
# Assay type in all cases: cell-based
# KRAS(G12D) = target: T1, KRAS(G12D) (Homo sapiens, UniProt P01116, G12D); assay: HiBit degradation assay in GP5d-HiBit-KRAS(G12D) cells (18 h; DC50, Dmax)
# T1 construct: introduced immediately downstream of the initiating Methionine codon of the endogenous KRAS locus; host or cells: GP5d-HiBit-KRAS(G12D), a CRISPR knock-in at the endogenous locus
# T1 sequence (P01116 1-188 isoform P01116-2 G12D): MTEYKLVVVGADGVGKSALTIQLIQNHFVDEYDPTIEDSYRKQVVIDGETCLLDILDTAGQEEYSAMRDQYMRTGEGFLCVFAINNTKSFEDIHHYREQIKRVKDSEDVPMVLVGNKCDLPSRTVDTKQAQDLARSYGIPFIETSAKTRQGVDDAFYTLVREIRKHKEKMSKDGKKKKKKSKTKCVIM
# How it was run: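 GP5d cells carry an endogenous N-terminal HiBit tag on KRAS(G12D), knocked in by CRISPR. They were seeded overnight in DMEM/10% FCS, exposed to compound for 18 h at 37° C, then lysed for HiBit luminescence, normalised to DMSO. DC50 comes from a four-parameter logistic fit; Dmax is maximal degradation as % of control.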
# KRAS4B WT = target: T2, KRAS4B WT (Homo sapiens, UniProt P01116); assay: HiBit KRAS4B mutant spectrum degradation assay, KRAS4B WT in GP5d cells (18 h); details: KRAS mutation G12WT
# T2 construct: HiBit; expressed in transfected cells; host or cells: GP5d cells (ECACC 95090715), stably transduced with lentivirus, CMV promoter
# T2 sequence (P01116 1-188 isoform P01116-2): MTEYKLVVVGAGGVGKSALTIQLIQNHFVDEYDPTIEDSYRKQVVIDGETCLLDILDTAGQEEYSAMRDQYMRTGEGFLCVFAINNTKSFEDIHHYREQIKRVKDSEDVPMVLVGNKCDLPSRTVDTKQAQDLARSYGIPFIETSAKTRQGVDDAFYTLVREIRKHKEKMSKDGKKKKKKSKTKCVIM
# Excerpt: (§1) The therapeutically relevant mutant KRAS constructs (WT, G12C, G12D, G12V, G13D) were obtained by site directed mutagenesis using a KRAS4B WT cDNA construct as a template. GP5d cells (ECACC Cat. No. 95090715) were transduced with lentiviral vectors expressing mutant KRAS4B cDNA under control of a CMV promoter. Stably transduced cells were selected using a neomycin selectable marker encoded on the construct.
# (§2) To assess PROTAC-mediated degradation of various KRAS mutants, GP5d cells stably transduced with KRAS4B constructs as described above were seeded at 25000 cells per well in 100 μL Dulbecco's Modified Eagle medium (Sigma cat. no. D6429) supplemented with 10% fetal calf serum into white bottom opaque 96 well plates (Perkin Elmer cat no. 5680). Plates were incubated at 37° C., 5% CO2 in a humidified incubator over night to allow the cells to adhere. […] Plates were further incubated at 37° C. for 18 hours. Following incubation, 100 μL per well Promega Nano-Glo HiBit lytic detection reagent mix (Promega Nano-Glo HiBit Lytic Detection System #N3050), prepared according to the manufacturer's instructions in the kit, were added. To allow for adequate cell lysis, plates were incubated on an orbital shaker for 15 min and further incubated 30 min at room temperature. Upon completion of cell lysis, luminescence was measured using an Envision plate reader using the Ultrasensitive Luminescence Protocol for 96 well plates. Luminescence levels were normalized by the values obtained with DMSO-treated samples and plotted as percent of DMSO control. DC50 values were computed using a four parametric logistic model and are reported in nM in Table 65 for representative example (Ex.) compounds of the invention. Dmax values represent the maximal extent of degradation observed and is stated as percent of control (% Ctrl.) treatments in Table 66 for representative example (Ex.) compounds of the invention.
# KRAS4B G12D = target: T3, KRAS4B G12D (Homo sapiens, UniProt P01116, G12D); assay: HiBit KRAS4B mutant spectrum degradation assay, KRAS4B G12D in GP5d cells (18 h); details: KRAS mutation G12D
# T3 construct: HiBit; expressed in transfected cells; host or cells: GP5d cells (ECACC 95090715), stably transduced with lentivirus, CMV promoter
# T3 sequence (P01116 1-188 isoform P01116-2 G12D): as the sequence (P01116 1-188 isoform P01116-2 G12D) above
# Excerpt: as §1, §2
# KRAS4B G12V = target: T4, KRAS4B G12V (Homo sapiens, UniProt P01116, G12V); assay: HiBit KRAS4B mutant spectrum degradation assay, KRAS4B G12V in GP5d cells (18 h); details: KRAS mutation G12V
# T4 construct: HiBit; expressed in transfected cells; host or cells: GP5d cells (ECACC 95090715), stably transduced with lentivirus, CMV promoter
# T4 sequence (P01116 1-188 isoform P01116-2 G12V): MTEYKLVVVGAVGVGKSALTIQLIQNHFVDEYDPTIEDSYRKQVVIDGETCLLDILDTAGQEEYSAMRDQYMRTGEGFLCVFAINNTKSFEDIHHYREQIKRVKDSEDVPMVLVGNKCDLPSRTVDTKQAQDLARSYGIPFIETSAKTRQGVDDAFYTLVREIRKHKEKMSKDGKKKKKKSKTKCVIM
# Excerpt: as §1, §2
# KRAS4B G13D = target: T5, KRAS4B G13D (Homo sapiens, UniProt P01116, G13D); assay: HiBit KRAS4B mutant spectrum degradation assay, KRAS4B G13D in GP5d cells (18 h); details: KRAS mutation G13D
# T5 construct: HiBit; expressed in transfected cells; host or cells: GP5d cells (ECACC 95090715), stably transduced with lentivirus, CMV promoter
# T5 sequence (P01116 1-188 isoform P01116-2 G13D): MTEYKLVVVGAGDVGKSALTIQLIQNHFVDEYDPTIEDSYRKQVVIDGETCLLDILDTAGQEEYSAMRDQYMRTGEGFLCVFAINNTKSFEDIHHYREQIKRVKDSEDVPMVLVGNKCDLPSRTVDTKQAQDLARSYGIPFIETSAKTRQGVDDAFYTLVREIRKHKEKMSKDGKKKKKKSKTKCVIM
# Excerpt: as §1, §2
# NCI-H358 cells = assay: NCI-H358 CTG proliferation assay (120 h) (NSCLC, G12C); details: Homo sapiens
# How it was run: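 IC50 values derive from four-parameter nonlinear regression of CellTiter-Glo viability (RLU relative to DMSO wells) after 120 h of exposure. Cells were plated in RPMI-1640 + 10% FCS at 2000 per well (assay 1) or 200 per well (assay 2). Untreated cells were measured at compound addition as T0.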
# GP5d cells = assay: GP5d cell proliferation assay (colorectal cancer, G12D), 5 days; details: Homo sapiens, 120 h
# Description: GP5d Cell Proliferation Assay (Colorectal Cancer, G12D)
# (§3) GP5d cells (ECACC 95090715) are dispensed into white bottom opaque 96 well plates at a density of 5000 cells per well in 100 μL DMEM (BioWhittaker, Cat #BE12-605F) supplemented with 10% FCS. […] Compounds (10 mM stock in DMSO) are added at logarithmic dose series using the HP Digital Dispenser D300 (Tecan), normalizing for added DMSO. For the TO time point measurement, untreated cells are analysed at the time of compound addition. Plates are incubated for 5 days, and cell viability is measured using CellTiter-Glo luminescent cell viability reagent (Promega, Cat. No G7570). Viability (stated as percent of control) is defined as relative luminescence units RLU of each well divided by the RLU of cells in DMSO controls. IC50 values were computed from relative viability values using a four parametric logistic model.
# SW620 cells = assay: SW620 cell proliferation assay (colorectal cancer, G12V), 5 days; details: Homo sapiens, SW-620, 120 h
# Description: SW620 Cell Proliferation Assay (Colorectal Cancer, G12V)
# as §3, with “SW620” for “GP5d”, “(ATCC CCL-227)” for “(ECACC 95090715)”, “plates (Perkin Elmer cat no. 5680)” for “plates”, “2000” for “5000”
smiles,measurement,setting,value
Cc1ncsc1-c1ccc(CNC(=O)[C@@H]2C[C@@H](O)CN2C(=O)[C@@H](NC(=O)CCCCCN2CCCN(c3nccc(-c4noc([C@@]5(C)CCCc6sc(N)c(C#N)c65)n4)n3)[C@@H](C)C2)C(C)(C)C)cc1 [I-47],DC50,KRAS(G12D),0.0477 µM
same,Dmax 18 h,KRAS(G12D),94 % Ctrl
same,DC50,KRAS4B WT,0.0362 µM
same,Dmax at 18 h,KRAS4B WT,95.4 % Ctrl.
same,DC50,KRAS4B G12D,0.048 µM
same,Dmax at 18 h,KRAS4B G12D,94 % Ctrl.
same,DC50,KRAS4B G12V,0.0988 µM
same,Dmax at 18 h,KRAS4B G12V,90 % Ctrl.
same,DC50,KRAS4B G13D,0.0449 µM
same,Dmax at 18 h,KRAS4B G13D,90 % Ctrl.
same,IC50,"NCI-H358 cells; assay 1, read-out: H358 (assay 1) IC50",2.5 µM
same,IC50,"NCI-H358 cells; assay 2, read-out: H358 (assay 2) IC50",0.168 µM
same,IC50,GP5d cells,0.141 µM
same,IC50,SW620 cells,0.28 µM
